Experimental data: US9173871B2, “Oxazole and thiazole compounds as beta-catenin modulators and uses thereof” (New York University, priority 2008, dated 2015)

Legend:
[1] = tested on: Wnt/wg pathway, Wnt-responsive luciferase reporter dTF12; assay: Wg-responsive dTF12 (TOP12) luciferase reporter assay in Drosophila Clone 8 cells, pathway activated by Axin dsRNA; type: cell-based; conditions: Drosophila melanogaster; luciferase assay method in Drosophila Clone 8 cells
From the text: The present inventors employed a novel methodology that integrates a “sensitized” chemical genetic high-throughput screen (HTS) with RNA-interference (RNAi) screening technology in order to identify specific small molecule inhibitors of the Wnt pathway in Drosophila cells. As described herein, Drosophila Clone 8 cell-based assay systems developed by the present inventors to investigate the Wnt/wg pathway [DasGupta et al. Science 308, 826-33 (2005)] were used in a small molecule chemical genetic screen to identify specific inhibitors of the pathway. These cell-based assays, which are described in detail below, utilize a Wnt-responsive luciferase reporter […], the activity of which can be determined using […]. The present inventors used the small-molecule library available from the Institute of Chemistry and Cellular Biology (ICCB-Longwood) at Harvard Medical School, Boston, for the screen. […] The resultant activation of the Wnt signaling pathway is then detected by assessing the activity of the Wnt-responsive luciferase reporter gene in the cell-based assay system. […] Primary Small Molecule Screen for the Wingless Signaling Pathway in Drosophila Clone 8 Cells Set up transfection with Wg-reporter ([…]), Normalization vector (PolIII-RL) and dsRNA against […] specific towards Drosophila Axin and lacks any predicted off-targets). 1. Add 40,000 Drosophila Clone 8 cells (in 40 μL) in 384-well plate (white solid bottom, Corning Costar) using the multidrop. 2. Add 20 μLof Transfection mix in each well of a 384-well plate (Corning Costar) using the multidrop. Incubate at 25° C. for 4 days to ensure complete knockdown of Axin. Add small molecule library (Cybio Robot). Incubate 18 hrs. Assay luminescence from the samples using the “Dual-Glo” luciferase kit (Promega Inc.). Specifically, aspirate supernatant and add 20 μL media+20 μL luciferase buffer using the multidrop. Read Firefly Luciferase activity on the EnVision (Perkin Elmer plate reader). Add 20 μL of Stop&Glo using the multidrop. Read Renilla luciferase activity on the EnVision (Perkin Elmer plate reader). The Wnt signaling pathway was induced by the introduction of dsRNAs specific for Axin into Clone 8 cells comprising the Wg-responsive luciferase reporter-gene ([…]). As described herein, Axin is a scaffold protein that negatively regulates Arm/β-cat by promoting its degradation. Thereafter, a selected set of a small molecule library was added to the Clone 8 cell-based assay system to assess the effect of individual compounds on (Axin dsRNA-mediated) activated CRT by monitoring the activity of the Wg-responsive luciferase reporter-gene ([…]). […] For the purpose of Table 11 below, activity of each compound is determined using the luciferase assay method in Drosophila Clone 8 cells.

[2] = tested on: Wnt-responsive STF16 luciferase reporter in HEK 293 cells; assay: Wnt-responsive STF16 luciferase reporter assay in HEK 293 cells; type: cell-based, mammalian; conditions: 2.5 ng/μl, Wnt3a conditioned media, FIG. 4
Protocol: HEK 293 cells were transfected with 50 ng each of the Wnt-responsive STF16 luciferase reporter and pCMV-RL normalization reporter using the Lipofectamine LTX (Invitrogen Inc.) in a 96 well plate format. Cells were cultured in DMEM/10% FBS at 37° C. for 2 days following which, they were induced with Wnt3a conditioned media for 1 day and then treated with small molecule compounds to a final concentration of 2.5 ng/μl for approximately 18 hours. Luciferase reporter activity was then measured using the Dual-Glo system (Promega Inc.) on the Envision Plate Reader. Normalized luciferase activity in response to treatment with candidate small molecule compounds was compared to that obtained from cells treated with DMSO. In order to confirm and corroborate the activity of CRT inhibitor compounds in a mammalian context, the present inventors have tested a subset of the inhibitors identified in the context of established mammalian cell lines. […] Briefly, HEK 293 cells were transfected with pSTF16-LF along with the normalization reporter, pCMV-RL and the effect of the compounds on reporter activity in such cells was determined by quantifying the luminescence from the luciferase reporter gene as described in Dasgupta et al. [supra (2005)].

[3] = tested on: C57 mg mouse mammary epithelial cell line; assay: C57mg transformation assay (Wnt3a induced); type: cell-based; conditions: 10 ng/μl, 5 days, FIG. 5
Protocol: The transformation assay was carried out in a 96 well format. C57 mg cells were cultured in DMEM/10% FBS supplemented with purified Wnt3a protein (R&D Systems) to a final concentration of […]. Small molecule compounds dissolved in DMSO were added to a final concentration of 10 ng/μl and 0.01% DMSO. Following incubation at 37° C. for 5 days, cells were fixed with 4% Formaldehyde in 1×PBS at RT for 30 min and washed subsequently with 1×PBS at room temperature (RT) for 5 minutes (×3). Cells were then permeabilized in Blocking buffer (0.1% Triton-X/1×PBS/5% Normal Goat Serum) at RT for 20 min, subsequent to which, cells were incubated with anti-β-cat at RT for 1 hour (diluted to 1:1000 in blocking buffer). Subsequently, cells were washed with 1×PBS at RT for 10 minutes (×3) and then incubated with secondary antibody and Alexa-Fluor 488 conjugated phalloidin in Blocking buffer at RT for 1 hour. Following a brief wash in 1×PBS, cells were imaged in PBS buffer using the Array-Scan imaging system.
Transformation of the cell line is evidenced by pronounced changes in morphology, typified by formation of chord-like bundles of cells or foci-forming colonies that break off and float in the media [Wong et al. supra, 1994]. This Wnt responsive phenotype provides a mammalian assay in which to evaluate the inhibitory effect of the small molecule inhibitors identified in the primary screen. Briefly, cells are cultured in Wnt3a conditioned media in the presence or absence of a small molecule inhibitor and morphological analysis conducted using automated microscopy.
The present inventors have established a phenotypic assay using the Wnt-responsive C57 mg mouse mammary epithelial cell line to ascertain the validity of the inhibitory compounds identified in the primary screen. Specifically, addition of Wnt3a conditioned media or purified Wnt3a protein results in cellular transformation, manifested by a pronounced change from an epithelial-cell like morphology to those resembling spindle shaped cells with chord like bundles. […] The Array-Scan imagining system (Cellomics Inc.) is used to image such phenotypic changes in a 96-well plate format so as to gain a quantitative estimate of the degree of the inhibitory effect of the compounds on Wnt3a induced transformation in C57 mg cells. Quantitative analysis of the transformation phenotype is measured by the degree of actin fiber alignment (defined as anisotropy), which is expressed as the standard deviation (SD) of the angles projected by the actin fibers relative to the normal; low SD numbers reflect an increase in Wnt-responsive transformation. This approach allows for objective inferences on the cellular effects of the candidate inhibitors.

HCT116 cells = assay: Flow cytometry cell cycle analysis of HCT116 cells; type: cell-based; conditions: HCT116, 16 hrs, FIG. 9
Protocol: In order to test the inhibitory effect of candidate compounds on the transcription of endogenous Wnt/β-cat target genes in HCT116 cells, lysates were prepared from cells that were either treated with candidate small molecules or DMSO control. […] Cell cycle arrest of compound treated HCT116 cells was further confirmed by the reduced number of phosphorylated Histone3 (PH3) positive cells, when cultured in the presence of candidate compounds (FIG. 10).
Flow Cytometry analysis was performed on HCT116 cells treated with candidate compounds for 16 hrs per standard protocols. Briefly, compound treated cells were harvested and washed in 1×PBS followed by fixation in 70% Ethanol at 4° C. for 16 hrs. Cells were then washed in 1×PBS and treated with RNAse at 37° C. for 30′. Following extensive washes in 1×PBS, cellular DNA was stained with 500 ug/ml of Propidium Iodide at room temperature for 10′. Cells were washed again in 1×PBS and analysed by flow cytometry on a FACScalibur machine (Beckson Dickinson) at the NYU flow cytometry core facility.

| SMILES | IC50 [1] [µM] | inhibition of Wnt responsive luciferase reporter activity in HEK-293 cells [2] | inhibition of Wnt3a induced C57 mg transformation [3] | cell cycle effect (HCT116 cells) |
| --- | --- | --- | --- | --- |
| CCc1ccc(-c2nc(CSCC(=O)N3CCc4ccccc43)c(C)o2)cc1 [IIa-2102] | 1.1 |  | partial reduction |  |
| CCc1ccc(-c2nc(CSCC(=O)NCCc3ccccc3)c(C)o2)cc1 [IIa-333] | 4.18 |  |  |  |
| COc1cccc(/C=C2\SC(=S)N(CCCC(=O)O)C2=O)c1OC [IIa-143] | 3.06 |  |  |  |
| Cc1cc(/C=C2\SC(=O)N(c3ccccc3)C2=O)c(C)n1-c1cccnc1 [Compound C14] |  |  |  | G0/G1 arrest |

The remaining compounds from weak to strong by IC50 [1], led by results:

| IC50 [1] [µM] | SMILES | inhibition of Wnt responsive luciferase reporter activity in HEK-293 cells [2] | inhibition of Wnt3a induced C57 mg transformation [3] | cell cycle effect (HCT116 cells) |
| --- | --- | --- | --- | --- |
| 1260 | Cc1ccc(-c2nc(CSCC(=O)NC3CC3)c(C)o2)cc1 [IIa-722] |  | partial reduction |  |
| 4.76 | O=C(CCCN1C(=O)/C(=C/c2cccs2)SC1=S)Nc1ccc(O)cc1 [IIa-432] | poor inhibitors | significant inhibition |  |
| 3.51 | CCc1ccc(-c2nc(CSCC(=O)NCc3ccccc3)c(C)o2)cc1 [IIa-66] |  |  |  |
| 1.58 | CCc1ccc(-c2nc(CSCC(=O)NC3CC3)c(C)o2)cc1 [IIa-719] |  | partial reduction |  |
